The values below come from PubChem BioAssay AID296 (DTP/NCI, 2004).

“And” between values parts separate entries of the source, which are not always exact repeats. Equal values may be shown once. Records with an inconclusive call do not appear.

The assay relates to MX-1 breast xenograft, nude mice, tumor weight T/C. In words: NCI In Vivo Anticancer Drug Screen. Data for tumor model Human Mammary Carcinoma MX-1 Xenograft (intrarenal inoculation) in NU/NU Swiss (nude) mice. As to conditions: endpoint: mean tumor weight change, higher = larger tumour. The gist of the method: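 Activity is given as a ratio, with each measurement in the compound-treated arm divided by the matching measurement in vehicle-dosed controls. Tumour size or survival serves as the measured parameter.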

[1] abbreviates: dose: 300.0 mg/kg/injection, schedule: Q04DX003 (sc), vehicle: saline with Tween-80.
Where [2] appears, read: dose: 600.0 mg/kg/injection, schedule: Q04DX003 (sc), vehicle: saline with Tween-80.
Setting [3] is: dose: 1200.0 mg/kg/injection, schedule: Q04DX003 (sc), vehicle: saline with Tween-80.
[4] abbreviates: dose: 2400.0 mg/kg/injection, schedule: Q04DX003 (sc), vehicle: saline with Tween-80.
Where [5] appears, read: dose: 50.0 mg/kg/injection, schedule: Q01DX010 (sc), vehicle: Klucel (hydroxypropylcellulose) (HPC).
[6] abbreviates: dose: 100.0 mg/kg/injection, schedule: Q01DX010 (sc), vehicle: Klucel (hydroxypropylcellulose) (HPC).
The mark [7] stands for this setting: dose: 200.0 mg/kg/injection, schedule: Q01DX010 (sc), vehicle: Klucel (hydroxypropylcellulose) (HPC).

For the compound `C[C@H]1C[C@@H]2[C@H]([C@@H](O)C[C@@]3(C)[C@H]2CC[C@]3(O)C(=O)CO)[C@@]2(C)C=CC(=O)C=C12`, the T/C was 33 % of control (dose: 200.0 mg/kg/injection, schedule: Q04DX003 (sc), vehicle: Klucel (hydroxypropylcellulose) (HPC)); 31 % of control (dose: 400.0 mg/kg/injection, schedule: Q04DX003 (sc), vehicle: Klucel (hydroxypropylcellulose) (HPC)); 30 % of control (dose: 800.0 mg/kg/injection, schedule: Q04DX003 (sc), vehicle: Klucel (hydroxypropylcellulose) (HPC)); 13 % of control (dose: 1600.0 mg/kg/injection, schedule: Q04DX003 (sc), vehicle: Klucel (hydroxypropylcellulose) (HPC)).
With `N#CCCSC(=S)C1CCCC1=N` (stereo not given), the T/C reads like this: under setting [1], 76 % of control; under setting [2], 87 % of control; under setting [3], 76 % of control; under setting [4], 85 % of control.
In the case of `CC1=C2CC(C)(C)/C=C\C(=O)/C(C)=C\C3=C[C@H](C)C[C@]3(O2)C1=O`, the T/C is 84 % of control (dose: 12.5 mg/kg/injection, schedule: Q04DX003 (sc), vehicle: Klucel (hydroxypropylcellulose) (HPC)); 100 % of control (dose: 25.0 mg/kg/injection, schedule: Q04DX003 (sc), vehicle: Klucel (hydroxypropylcellulose) (HPC)); 82 % of control (dose: 50.0 mg/kg/injection, schedule: Q04DX003 (sc), vehicle: Klucel (hydroxypropylcellulose) (HPC)).
Regarding `Cn1cnc([N+](=O)[O-])c1S(=O)(=O)NCN1CCOCC1`, the T/C (dose: 25.0 mg/kg/injection, schedule: Q01DX010 (sc), vehicle: Klucel (hydroxypropylcellulose) (HPC)) was 94 % of control; the T/C under setting [5] is 76 % of control; the T/C under setting [6] is 94 % of control; the T/C under setting [7] was 78 % of control.
Take `C[C@]12CCC(=O)C(O)=C1CC[C@@H]1[C@@H]2CC[C@]2(C)C(=O)CC[C@@H]12`: the T/C by setting is: (dose: 35.0 mg/kg/injection, schedule: Q01DX010 (sc), vehicle: Klucel (hydroxypropylcellulose) (HPC)) 223 % of control; (dose: 70.0 mg/kg/injection, schedule: Q01DX010 (sc), vehicle: Klucel (hydroxypropylcellulose) (HPC)) 112 % of control; (dose: 280.0 mg/kg/injection, schedule: Q01DX010 (sc), vehicle: Klucel (hydroxypropylcellulose) (HPC)) 88 % of control.
`Cc1cc2nc3c(=O)[nH]c(=O)nc-3n(CC(O)C(O)C(O)C(O)CO)c2cc1C` (stereo not given): the T/C runs as follows: under setting [1], 93 % of control; under setting [2], 89 % of control; under setting [3], 89 % of control; under setting [4], 91 % of control.
Take `CS(=O)(=O)OCCC(=O)N1CCN(C(=O)CCOS(C)(=O)=O)CC1`: the T/C is 8 % of control (dose: 300.0 mg/kg/injection, schedule: Q04DX003 (sc), vehicle: suspension in saline); -100 % of control (dose: 600.0 mg/kg/injection, schedule: Q04DX003 (sc), vehicle: suspension in saline); -100 % of control (dose: 1200.0 mg/kg/injection, schedule: Q04DX003 (sc), vehicle: suspension in saline).
As to `O=[N+]([O-])c1ccc([I+]c2ccccc2)cc1`, the T/C (dose: 75.0 mg/kg/injection, schedule: Q04DX003 (ip), vehicle: Klucel (hydroxypropylcellulose) (HPC)) is 92 % of control.
Consider `O=C(CO)c1ccc([N+](=O)[O-])cc1`, for which the T/C runs as follows: (dose: 100.0 mg/kg/injection, schedule: Q01DX010 (sc), vehicle: saline with Tween-80) 95 % of control; (dose: 200.0 mg/kg/injection, schedule: Q01DX010 (sc), vehicle: saline with Tween-80) 114 % of control; (dose: 400.0 mg/kg/injection, schedule: Q01DX010 (sc), vehicle: saline with Tween-80) 67 % of control; (dose: 800.0 mg/kg/injection, schedule: Q01DX010 (sc), vehicle: saline with Tween-80) 63 % of control.
In the case of `Cc1ccc2c(ccc(CC(=S)[S-])[n+]2C)c1`, the T/C under setting [5] was 57 % of control; the T/C under setting [6] was 80 % of control; the T/C under setting [7] is 28 % of control; the T/C (dose: 400.0 mg/kg/injection, schedule: Q01DX010 (sc), vehicle: Klucel (hydroxypropylcellulose) (HPC)) was 107 % of control.
For the compound `CC(=O)Oc1c[nH]c(=O)[nH]c1=O`, the T/C was 117 % of control (dose: 100.0 mg/kg/injection, schedule: Q04DX003 (sc), vehicle: distilled water + Tween-80); 97 % of control (dose: 400.0 mg/kg/injection, schedule: Q04DX003 (sc), vehicle: distilled water + Tween-80); 95 % of control (dose: 800.0 mg/kg/injection, schedule: Q04DX003 (sc), vehicle: distilled water + Tween-80); 58 % of control (dose: 1600.0 mg/kg/injection, schedule: Q04DX003 (sc), vehicle: distilled water + Tween-80).
Consider `CSc1ncnc2c1ncn2C1OC(CO)C(O)C1O` (stereo not given), for which the T/C reads like this: (dose: 75.0 mg/kg/injection, schedule: Q04DX003 (sc), vehicle: saline + alcohol) 3 % of control and 14 % of control; (dose: 150.0 mg/kg/injection, schedule: Q04DX003 (sc), vehicle: saline + alcohol) -81 % of control and -100 % of control; (dose: 300.0 mg/kg/injection, schedule: Q04DX003 (sc), vehicle: saline + alcohol) -90 % of control.
`O=NN(CCCl)C(=O)NC1OC(CO)C(O)C(O)C1O` (stereo not given): the T/C (dose: 5.0 mg/kg/injection, schedule: Q04DX003 (sc), vehicle: saline) was 91 % of control; the T/C (dose: 10.0 mg/kg/injection, schedule: Q04DX003 (sc), vehicle: saline) is 69 % of control; the T/C (dose: 20.0 mg/kg/injection, schedule: Q04DX003 (sc), vehicle: saline) is 40 % of control.
Consider `C1CCC2OCCOCCOC3CCCCC3OCCOCCOC2C1` (stereo not given), for which the T/C (dose: 9.38 mg/kg/injection, schedule: Q04DX003 (sc), vehicle: Klucel (hydroxypropylcellulose) (HPC)) was 62 % of control; the T/C (dose: 18.75 mg/kg/injection, schedule: Q04DX003 (sc), vehicle: Klucel (hydroxypropylcellulose) (HPC)) is 87 % of control; the T/C (dose: 37.5 mg/kg/injection, schedule: Q04DX003 (sc), vehicle: Klucel (hydroxypropylcellulose) (HPC)) is 64 % of control; the T/C (dose: 75.0 mg/kg/injection, schedule: Q04DX003 (sc), vehicle: Klucel (hydroxypropylcellulose) (HPC)) is 46 % of control.
As to `O=C(O[Si](Cc1ccccc1)(Cc1ccccc1)Cc1ccccc1)N(CCCl)CCCl`, the T/C reads like this: (dose: 100.0 mg/kg/injection, schedule: Q04DX003 (sc), vehicle: saline with Tween-80) 78 % of control; (dose: 200.0 mg/kg/injection, schedule: Q04DX003 (sc), vehicle: saline with Tween-80) 29 % of control.
As for `CCOC(=O)C1=C(C#N)C2(CCC(OCc3ccccc3)CC2)C(=O)O1` (stereo not given), the T/C is 81 % of control (dose: 200.0 mg/kg/injection, schedule: Q04DX003 (sc), vehicle: suspension in saline); 119 % of control (dose: 400.0 mg/kg/injection, schedule: Q04DX003 (sc), vehicle: suspension in saline); 52 % of control (dose: 800.0 mg/kg/injection, schedule: Q04DX003 (sc), vehicle: suspension in saline); 62 % of control (dose: 1600.0 mg/kg/injection, schedule: Q04DX003 (sc), vehicle: suspension in saline).
For the compound `OC1CCCC2CCCNC12` (stereo not given), the T/C (dose: 37.5 mg/kg/injection, schedule: Q04DX003 (sc), vehicle: saline with Tween-80) is 76 % of control and the T/C (dose: 75.0 mg/kg/injection, schedule: Q04DX003 (sc), vehicle: saline with Tween-80) is 85 % of control.
Take `CCOC(OCC)C(=O)OCC(=O)[C@]1(O)Cc2c(O)c3c(c(O)c2[C@@H](OC2CC(N)C(O)C(C)O2)C1)C(=O)c1c(OC)cccc1C3=O` (stereo not given in full): for the setting “dose: 4.0 mg/kg/injection, schedule: Q01DX010 (sc), vehicle: water”, the T/C was 27 % of control and 44 % of control.
For `COc1cc([C@@H]2c3cc4c(c(O)c3C[C@H]3COC(=O)[C@@H]32)OCO4)cc(OC)c1O`, the T/C (dose: 0.5 mg/kg/injection, schedule: Q01DX010 (sc), vehicle: saline) was 121 % of control; the T/C (dose: 1.0 mg/kg/injection, schedule: Q01DX010 (sc), vehicle: saline) was 114 % of control; the T/C (dose: 2.0 mg/kg/injection, schedule: Q01DX010 (sc), vehicle: saline) is 87 % of control; the T/C (dose: 3.13 mg/kg/injection, schedule: Q01DX010 (sc), vehicle: saline) was 104 % of control; the T/C (dose: 4.0 mg/kg/injection, schedule: Q01DX010 (sc), vehicle: saline) is 98 % of control; the T/C (dose: 6.25 mg/kg/injection, schedule: Q01DX010 (sc), vehicle: saline) is 34 % of control.
With `CN(C)[C@@H]1C(=O)C(C(=O)NCN2CCN(C(=N)N=C(N)N)CC2)=C(O)[C@@]2(O)C(=O)C3=C(O)c4c(O)cccc4[C@@](C)(O)[C@H]3C[C@@H]12`, the T/C runs as follows: (dose: 2.5 mg/kg/injection, schedule: Q04DX003 (ip), vehicle: suspension in saline) 100 % of control; (dose: 5.0 mg/kg/injection, schedule: Q04DX003 (ip), vehicle: suspension in saline) 28 % of control.
